Assay results: patent US7618626B2, “Combination treatment for non-hematologic malignancies” (Pfizer Inc, priority 2004, dated 2009)
Read-outs that look alike come from different tables or passages of the source. Blank lines part the entries; values can stand above or below the molecule they belong to.

Tests used:
[1] = system: hormone-receptor-positive breast cancer; conditions: cited from earlier work
[2] = molecular target: T1, IGF-1R (Homo sapiens, UniProt P08069); experiment: IGF-1R phosphotyrosine signal in 3T3-IGF-1R tumors; format: in vivo; conditions: FIG. 4
T1 construct: expressed in transfected cells; host or cells: NIH-3T3 (mouse fibroblast) transfectant, grown as tumors in athymic mice

[3] = system: tumors of the transfectant IGF-1R over-expressing NIH-3T3 cell line; experiment: 3T3-IGF-1R tumor growth in vivo (athymic mice, intraperitoneal administration); conditions: FIG. 5
Experimental: When incubated with cells, fully human monoclonal antibodies that are highly specific and potent inhibitors of IGF-1-induced receptor autophosphorylation induced down-regulation of IGF-1R by receptor internalization. […] The serum concentration of anti-IGF-1R antibodies that led to 50% growth inhibition was 20 μg/ml at Day 1, and 13 μg/ml at Day 9. Similar anti-tumor studies were extended to human tumor xenograft models. As a single agent, anti-IGF-1R antibodies inhibited the growth of several xenograft models including breast, lung and colorectal carcinomas.

Molecule: CC/C(=C(\c1ccccc1)c1ccc(OCCN(C)C)cc1)c1ccccc1 [Tamoxifen]
reduction of recurrence ([1]; post-menopausal women): 40-50%
reduction of recurrence ([1]; pre-menopausal women): 30-50%

IGF-1R phosphotyrosine signal in 3T3-IGF-1R tumors [2]: reduce IGF-1R phosphotyrosine signal
B1: 2.13.2: fully human anti-IGF-1R monoclonal antibody; hybridoma ATCC PTA-2788 (antibody)
heavy: EVQLLESGGGLVQPGGSLRLSCTASGFTFSSYAMNWVRQAPGKGLEWVSAISGSGGTTFYADSVKGRFTISRDNSRTTLYLQMNSLRAEDTAVYYCAKDLGWSDSYYYYYGMDVWGQGTTVTVSSASTKGPSVFPLAPCSRSTSESTAALGCLVKDYFPEPVTVSWNSGALTSGVHTFPAVLQSSGLYSLSSVVTVPSSNFGTQTYTCNVDHKPSNTKVDKTVERKCCVECPPCPAPPVAGPSVFLFPPKPKDTLMISRTPEVTCVVVDVSHEDPEVQFNWYVDGVEVHNAKTKPREEQFNSTFRVVSVLTVVHQDWLNGKEYKCKVSNKGLPAPIEKTISKTKGQPREPQVYTLPPSREEMTKNQVSLTCLVKGFYPSDIAVEWESNGQPENNYKTTPPMLDSDGSFFLYSKLTVDKSRWQQGNVFSCSVMHEALHNHYTQKSLSLSPGK
light: DIQMTQFPSSLSASVGDRVTITCRASQGIRNDLGWYQQKPGKAPKRLIYAASRLHRGVPSRFSGSGSGTEFTLTISSLQPEDFATYYCLQHNSYPCSFGQGTKLEIKRTVAAPSVFIFPPSDEQLKSGTASVVCLLNNFYPREAKVQWKVDNALQSGNSQESVTEQDSKDSTYSLSSTLTLSKADYEKHKVYACEVTHQGLSSPVTKSFNRGEC
3T3-IGF-1R tumor growth in vivo [3]: inhibits 3T3-IGF-1R tumor growth in vivo
